These compounds were tested against IDO1 (Homo sapiens, UniProt P14902) (assay: IDO1 Cellular Assay in HeLa Cells Stimulated with IFNγ). Details: about 48 hours, read-out: Hela IC50.
Assay type: cell-based

IDO1, sequence (P14902 whole entry): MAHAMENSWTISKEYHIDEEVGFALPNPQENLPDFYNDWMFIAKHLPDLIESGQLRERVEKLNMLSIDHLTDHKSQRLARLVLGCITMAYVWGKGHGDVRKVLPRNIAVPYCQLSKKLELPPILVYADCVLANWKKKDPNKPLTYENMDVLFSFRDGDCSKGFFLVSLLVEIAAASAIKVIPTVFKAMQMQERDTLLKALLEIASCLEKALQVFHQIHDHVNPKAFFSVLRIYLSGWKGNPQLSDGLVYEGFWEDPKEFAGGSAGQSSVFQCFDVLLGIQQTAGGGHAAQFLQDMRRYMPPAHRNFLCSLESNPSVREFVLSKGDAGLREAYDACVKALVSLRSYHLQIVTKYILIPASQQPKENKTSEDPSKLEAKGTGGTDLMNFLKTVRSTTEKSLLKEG

| IC50 | Compound |
| --- | --- |
| 266 nM | CC(=O)N1CCCc2nc(C3(NC(=O)c4ccc(F)cc4)CC3)ccc21 [Example 174, N-[1-(5-acetyl-5,6,7,8-tetrahydro-1,5-naphthyridin-2-yl)cyclopropyl]-4-fluorobenzamide] |
| 161 nM | CC(C)CC(=O)N1CCCc2cc(CNC(=O)c3ccc(F)c(F)c3)ccc21 [Example 10, 3,4-difluoro-N-{[1-(3-methylbutanoyl)-1,2,3,4-tetrahydroquinolin-6-yl]methyl}benzamide] |
| 39.9 nM | Cn1cc(C(=O)N2CCCc3nc(C4(NC(=O)c5ccc(F)cc5)CC4)ccc32)cn1 [Example 173, 4-fluoro-N-{1-[5-(1-methyl-1H-pyrazole-4-carbonyl)-5,6,7,8-tetrahydro-1,5-naphthyridin-2-yl]cyclopropyl}benzamide] |
| 524 nM | C[C@@H](C(=O)Nc1ccc(F)cn1)c1ccc2c(c1)CCCN2C(=O)C1(F)CC1 (single isomer, unassigned) [Example 62] |
| 41.4 nM | CC(C)CC(=O)N1CCCc2cc(CNC(=O)c3ccc(F)cc3)ccc21 [Example 11, 4-fluoro-N-{[1-(3-methylbutanoyl)-1,2,3,4-tetrahydroquinolin-6-yl]methyl}benzamide] |
| 4000 nM | CC(C(=O)Nc1ccc(F)cc1)c1ccc2c(n1)CCCN2C(=O)c1cccc(S(C)(=O)=O)c1 (centres unmarked) [Example 285, N-(4-fluorophenyl)-2-(5-(3-(methylsulfonyl)benzoyl)-5,6,7,8-tetrahydro-1,5-naphthyridin-2-yl)propanamide] |
| 74.6 nM | C[C@@H](NC(=O)c1ccc(Cl)cc1)c1ccc2c(n1)OCCN2C(=O)c1cccc(Cl)c1 (single isomer, unassigned) [Example 255, 4-Chloro-N-(1-(1-(3-chlorobenzoyl)-2,3-dihydro-1H-pyrido[2,3-b][1,4]oxazin-6-yl)ethyl)benzamide] |
| 19.8 nM | COC(=O)N1CCCc2nc(C(C)C(=O)Nc3ccc(Cl)cc3)ccc21 (centres unmarked) [Example 221, methyl 6-{1-[(4-chlorophenyl)amino]-1-oxopropan-2-yl}-3,4-dihydro-1,5-naphthyridine-1(2H)-carboxylate] |
| 149 nM | CN(C)C(=O)N1CCCc2cc(C3(C(=O)Nc4ccc(F)cn4)CCC3)ccc21 [Example 102, 6-{1-[(5-fluoropyridin-2-yl)carbamoyl]cyclobutyl}-N,N-dimethyl-3,4-dihydroquinoline-1(2H)-carboxamide] |
| 136 nM | Cn1ccc(C(=O)NCc2ccc3c(c2)CCCN3C(=O)c2cccc(Cl)c2)n1 [Example 25, N-{[1-(3-chlorobenzene-1-carbonyl)-1,2,3,4-tetrahydroquinolin-6-yl]methyl}-1-methyl-1H-pyrazole-3-carboxamide] |
| 4.8 nM | CC(C(=O)Nc1ccc(F)cc1)c1ccc2c(c1)CCCN2C(=O)C1CCCCO1 (centres unmarked) [Example 37, N-(4-fluorophenyl)-2-[1-(oxane-2-carbonyl)-1,2,3,4-tetrahydroquinolin-6-yl]propanamide] |
| 63.6 nM | C[C@@H](NC(=O)c1ccc(F)cc1)c1ccc2c(n1)CCCN2C(=O)C1CC1(F)F (stereo partly drawn) [Example 133, N-{(1R)-1-[5-(2,2-difluorocyclopropane-1-carbonyl)-5,6,7,8-tetrahydro-1,5-naphthyridin-2-yl]ethyl}-4-fluorobenzamide] |
| 43.6 nM | CC(C(=O)Nc1ccc(F)cc1)c1ccc2c(c1)CCCN2Cc1cccc(Cl)c1 (single isomer, unassigned) [Example 226, 2-{1-[(3-chlorophenyl)methyl]-1,2,3,4-tetrahydroquinolin-6-yl}-N-(4-fluorophenyl)propanamide] |
| 1.8 nM | O=C(C1CCCCO1)N1CCCc2nc(C3(C(=O)Nc4ccc(F)cc4)CCC3)ccc21 (single isomer, unassigned) [Example 179, N-(4-fluorophenyl)-1-[5-(oxane-2-carbonyl)-5,6,7,8-tetrahydro-1,5-naphthyridin-2-yl]cyclobutane-1-carboxamide] |
| 396 nM | CC(NC(=O)c1ccc(F)cc1)c1ccc2c(n1)C(F)CCN2C(=O)C1CC1 (single isomer, unassigned) [Example 202, N-(1-(5-(cyclopropanecarbonyl)-8-fluoro-5,6,7,8-tetrahydro-1,5-naphthyridin-2-yl)ethyl)-4-fluorobenzamide] |
| 40.5 nM | Cc1noc(C(=O)NCc2ccc3c(c2)CCCN3C(=O)c2cccc(Cl)c2)n1 [Example 21, N-{[1-(3-chlorobenzene-1-carbonyl)-1,2,3,4-tetrahydroquinolin-6-yl]methyl}-3-methyl-1,2,4-oxadiazole-5-carboxamide] |
| 3.1 nM | O=C(C1CCOCC1)N1CCCc2nc(C3(C(=O)Nc4ccc(F)cc4)CCC3)ccc21 [Example 181, N-(4-fluorophenyl)-1-[5-(oxane-4-carbonyl)-5,6,7,8-tetrahydro-1,5-naphthyridin-2-yl]cyclobutane-1-carboxamide] |
| 7510 nM | CC(NC(=O)c1ccc(F)cc1)c1ccc2c(n1)C(F)CCN2C(=O)C1CC1 (single isomer, unassigned) [Example 203, N-(1-(5-(cyclopropanecarbonyl)-8-fluoro-5,6,7,8-tetrahydro-1,5-naphthyridin-2-yl)ethyl)-4-fluorobenzamide] |
| 30 nM | CC(C(=O)Nc1ccc(F)cc1)c1ccc2c(c1)CCCN2C(=O)c1cnco1 (centres unmarked) [Example 49, N-(4-fluorophenyl)-2-[1-(1,3-oxazole-5-carbonyl)-1,2,3,4-tetrahydroquinolin-6-yl]propanamide] |
| 276 nM | CC(C)CC(=O)N1CCCc2cc(CNC(=O)c3ccc(Cl)c(Cl)c3)ccc21 [Example 8, 3,4-dichloro-N-{[1-(3-methylbutanoyl)-1,2,3,4-tetrahydroquinolin-6-yl]methyl}benzamide] |
| 12.8 nM | Cc1cc(C(=O)N2CCCc3cc(C4(C(=O)Nc5ccc(F)cn5)CCC4)ccc32)ncn1 [Example 107, N-(5-fluoropyridin-2-yl)-1-[1-(6-methylpyrimidine-4-carbonyl)-1,2,3,4-tetrahydroquinolin-6-yl]cyclobutane-1-carboxamide] |
| 460 nM | C[C@H](C(=O)Nc1ccc(F)cc1)c1ccc2c(c1)CCCN2C(=O)C1CN(C)CCO1 (stereo partly drawn) [Example 74, (2S)-N-(4-fluorophenyl)-2-[1-(4-methylmorpholine-2-carbonyl)-1,2,3,4-tetrahydroquinolin-6-yl]propanamide] |
| 36.9 nM | O=C(NCc1ccc2c(c1)CCCN2C(=O)OCc1ccccc1)c1ccc(Cl)cc1 [Example 15, benzyl 6-((4-chlorobenzamido)methyl)-3,4-dihydroquinoline-1(2H)-carboxylate] |
| 3 nM | Cc1cccc(C(=O)N2CCCc3nc(C(C)NC(=O)c4ccc(F)cc4)ccc32)n1 (centres unmarked) [Example 281, 2-(1-(4-fluorobenzamido)ethyl)-5-(6-methylpicolinoyl)-5,6,7,8-tetrahydro-1,5-naphthyridin-1-ium 2,2,2-trifluoroacetate] |

Same assay, conditions: read-out: Hela IC50

| IC50 | Compound |
| --- | --- |
| 9.71 nM | Cc1cc(N2CCCc3nc(C(C)NC(=O)c4ccc(Cl)cc4)ccc32)nc(C(F)(F)F)n1 (centres unmarked) [Example 349, 4-chloro-N-(1-(5-(6-methyl-2-(trifluoromethyl)pyrimidin-4-yl)-5,6,7,8-tetrahydro-1,5-naphthyridin-2-yl)ethyl)benzamide] |
| 14.4 nM | CC(COC(=O)N1CCCc2nc(C(C)NC(=O)c3ccc(F)cc3)ccc21)Oc1ccccc1 (centres unmarked) [Example 327, 2-phenoxypropyl 6-(1-(4-fluorobenzamido)ethyl)-3,4-dihydro-1,5-naphthyridine-1(2H)-carboxylate] |

— patent publication US12275729B2 (Merck Sharp & Dohme LLC, priority 2017, dated 2025)
